Measured values: EP0326329B1, “Quinazoline derivatives useful as insecticides” (Dow AgroSciences LLC, priority 1988, dated 1989)

Experiments:
Assay type in all cases: in vivo
[1] = tested on: southern armyworm (Spodopetra eridania Cramer); assay: Mite/insect screen, sprayed squash leaves (SAW); settings: percent mortality; for mortality at 200 ppm / mortality at 400 ppm: Spodoptera eridania, read-out: SAW RESULTS %; for mortality at 200 ppm / SAW RESULTS %: spray rate 200 ppm; for mortality at 400 ppm: spray rate 400 ppm
Procedure, shortened: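 Compounds were dissolved in 50:50 acetone/alcohol containing sulfonate/nonionic emulsifier blends (23 g and 13 g per liter) and diluted with water to test concentrations. Leaves were sprayed on both surfaces to runoff and dried for one hour. Percent mortality and phytotoxicity were scored after standard exposure periods.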

[2] = tested on: Erysiphe graminis tritici (powdery mildew); assay: Greenhouse Test 1, foliar spray fungicide screen (POWD MDEW), host wheat; settings: disease control rating, 400 ppm (+++ at 100 ppm)
[3] = tested on: Pyricularia oryzae (rice blast); settings: disease control rating, foliar spray, host rice; 400 ppm (+++ at 100 ppm)
[4] = tested on: melon aphids (Aphis gossypii Glover); assay: Mite/insect screen, sprayed squash cotyledons (MA); settings: percent mortality; for mortality at 200 ppm / mortality at 400 ppm: Aphis gossypii, read-out: MA RESULTS %; for mortality at 200 ppm / MA RESULTS %: spray rate 200 ppm; for mortality at 400 ppm: spray rate 400 ppm
Procedure, shortened: (§1)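 Compounds dissolved in acetone/alcohol with TOXIMUL R/S emulsifiers, diluted with water to test concentrations, and sprayed to runoff on both leaf surfaces at 10 psi, then dried 1 h. Excised treated squash leaves given southern armyworm larvae; aphid and spider mite tests on sprayed squash cotyledons. Percent mortality and phytotoxicity scored after standard exposure.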

[5] = tested on: Botrytis cinerea (gray mold); assay: Greenhouse Test 1, foliar spray fungicide screen (GRAY MOLD), host grape berries; settings: disease control rating, 400 ppm (+++ at 100 ppm)
[6] = tested on: Twospotted spider mites (Tetranychus urticae Koch); assay: Mite/insect screen, sprayed squash cotyledons (SM); settings: percent mortality; for mortality at 200 ppm / mortality at 400 ppm: Tetranychus urticae, read-out: SM RESULTS %; for mortality at 200 ppm / SM RESULTS %: spray rate 200 ppm; for mortality at 400 ppm: spray rate 400 ppm
Procedure, shortened: as §1

[7] = tested on: Southern corn rootworm (Diabrotica undecimpuctata howardi Barber); assay: Mite/insect screen, soil treatment (CRW); settings: percent mortality, soil treatment; for mortality at 12 ppm / mortality at 24 ppm: Diabrotica, read-out: CRW RESULTS %; for mortality at 12 ppm / CRW RESULTS %: CRW rate 12.00 ppm; for mortality at 24 ppm: CRW rate 24.00 ppm
Procedure, shortened: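 Compounds dissolved in acetone/alcohol (50:50) with Toximul R/S emulsifiers, diluted with water. Soil (15 g, with presoaked corn seed) treated with 1 mL test solution, dried 6–12 h, then five 2–3 instar larvae added; held at 23°C. Percent mortality and phytotoxicity scored after standard exposure periods.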

[8] = tested on: Pseudoperonospora cubensis (downy mildew); assay: Greenhouse Test 1, foliar spray fungicide screen (DOWN MDEW), host squash; settings: disease control rating, 400 ppm (+++ at 100 ppm)
[9] = tested on: Puccinia recondita tritici (leaf rust); assay: Greenhouse Test 1, foliar spray fungicide screen (LEAF RUST), host wheat; settings: disease control rating, 400 ppm (+++ at 100 ppm)

| Compound | mortality at 200 ppm [1] [%] | mortality at 400 ppm [1] [%] | POWD MDEW [2] | RICE BLAST [3] | mortality at 200 ppm [4] [%] | mortality at 400 ppm [4] [%] | GRAY MOLD [5] | mortality at 200 ppm [6] [%] | mortality at 400 ppm [6] [%] | mortality at 12 ppm [7] [%] | mortality at 24 ppm [7] [%] | DOWN MDEW [8] | LEAF RUST [9] | SAW RESULTS % [1] [%] | MA RESULTS % [4] [%] | SM RESULTS % [6] [%] | CRW RESULTS % [7] [%] |
| --- | --- | --- | --- | --- | --- | --- | --- | --- | --- | --- | --- | --- | --- | --- | --- | --- | --- |
| Fc1cccc2c(OCCc3ccccc3C(F)(F)F)ncnc12 [Example 56, 8-fluoro-4-[2-[2-(trifluoromethyl)phenyl]ethoxy]quinazoline] | 0 | 0 | +++ (+++ = 90-100% control at 100 ppm) | +++ (+++ = 90-100% control at 100 ppm) | 100 | 0 | - (- = 0-19% control at 400 ppm) | 40 | 0 | 0 | 0 | +++ (+++ = 90-100% control at 100 ppm) | +++ (+++ = 90-100% control at 100 ppm) |  |  |  |  |
| Clc1ccc2ncnc(NCCc3ccccc3Oc3ccccc3)c2c1 [Example 57, 6-chloro-N-[2-(2-phenoxyphenyl)ethyl]-4-quinazolinamine] | 80 | 0 | - (- = 0-19% control at 400 ppm) | - (- = 0-19% control at 400 ppm) | 0 | 0 | - (- = 0-19% control at 400 ppm) | 0 | 0 | 0 | 0 | - (- = 0-19% control at 400 ppm) | - (- = 0-19% control at 400 ppm) | 100 | 0 | 0 | 0 |
| CC(COc1ncnc2ccccc12)c1ccccc1 (centres unmarked) [Example 60, 4-(2-phenylpropoxy)quinazoline] |  | 0 | + (+ = 20-89% control at 400 ppm) | +++ (+++ = 90-100% control at 100 ppm) |  | 100 | - (- = 0-19% control at 400 ppm) |  | 100 |  | 0 | ++ (++ = 90-100% control at 400 ppm) | + (+ = 20-89% control at 400 ppm) |  |  |  |  |
| Fc1cccc2c(NCC(c3ccccc3)c3ccccc3)ncnc12 [Example 61, N-(2,2-diphenylethyl)-8-fluoro-4-quinazolinamine] | 0 | 0 | - (- = 0-19% control at 400 ppm) | - (- = 0-19% control at 400 ppm) | 0 | 0 | - (- = 0-19% control at 400 ppm) | 0 | 0 | 0 | 0 | - (- = 0-19% control at 400 ppm) | - (- = 0-19% control at 400 ppm) | 0 | 0 | 0 | 0 |
| CCc1ccc(CCOc2ncnc3ccccc23)cc1 [Example 65, 4-[2-(4-ethylphenyl)ethoxy]quinazoline] |  | 0 | +++ (+++ = 90-100% control at 100 ppm) | +++ (+++ = 90-100% control at 100 ppm) |  | 100 | - (- = 0-19% control at 400 ppm) |  | 100 |  | 0 | +++ (+++ = 90-100% control at 100 ppm) | +++ (+++ = 90-100% control at 100 ppm) |  |  |  |  |
| Fc1cccc2c(OCCc3ccc4ccccc4c3)ncnc12 [Example 66, 8-fluoro-4-[2-(2-naphthyl)ethoxy]quinazoline] |  | 0 | +++ (+++ = 90-100% control at 100 ppm) | +++ (+++ = 90-100% control at 100 ppm) |  | 0 | - (- = 0-19% control at 400 ppm) |  | 0 |  | 0 | +++ (+++ = 90-100% control at 100 ppm) | +++ (+++ = 90-100% control at 100 ppm) |  |  |  |  |
| c1ccc(C(COc2ncnc3ccccc23)c2ccccc2)cc1 [Example 67, 4-(2,2-diphenylethoxy)quinazoline] |  | 0 | + (+ = 20-89% control at 400 ppm) | + (+ = 20-89% control at 400 ppm) |  | 30 | - (- = 0-19% control at 400 ppm) |  | 60 |  | 0 | ++ (++ = 90-100% control at 400 ppm) | - (- = 0-19% control at 400 ppm) |  |  |  |  |
| c1ccc(Oc2cccc(CCOc3ncnc4ccccc34)c2)cc1 [Example 68, 4-[2-(3-phenoxyphenyl)ethoxy]quinazoline] |  | 0 | +++ (+++ = 90-100% control at 100 ppm) | +++ (+++ = 90-100% control at 100 ppm) |  | 100 | - (- = 0-19% control at 400 ppm) |  | 90 |  | 0 | +++ (+++ = 90-100% control at 100 ppm) | +++ (+++ = 90-100% control at 100 ppm) |  |  |  |  |
| c1ccc(Oc2ccc(CCOc3ncnc4ccccc34)cc2)cc1 [Example 69, 4-[2-(4-phenoxyphenyl)ethoxy]quinazoline] |  | 100 | +++ (+++ = 90-100% control at 100 ppm) | +++ (+++ = 90-100% control at 100 ppm) |  | 0 | - (- = 0-19% control at 400 ppm) |  | 100 |  | 0 | +++ (+++ = 90-100% control at 100 ppm) | +++ (+++ = 90-100% control at 100 ppm) |  |  |  |  |
| Fc1cccc2c(OCCC3CCCCC3)ncnc12 [Example 70, 4-(2-cyclohexylethoxy)-8-fluoroquinazoline] |  | 0 | + (+ = 20-89% control at 400 ppm) | +++ (+++ = 90-100% control at 100 ppm) |  | 0 | - (- = 0-19% control at 400 ppm) |  | 80 |  | 0 | + (+ = 20-89% control at 400 ppm) | + (+ = 20-89% control at 400 ppm) |  |  |  |  |
| COc1ccc(CCOc2ncnc3ccccc23)cc1OC [Example 73, 4-[2-(3,4-dimethoxyphenyl)ethoxy]quinazoline] |  | 0 | ++ (++ = 90-100% control at 400 ppm) | - (- = 0-19% control at 400 ppm) |  | 0 | - (- = 0-19% control at 400 ppm) |  | 0 |  | 100 | +++ (+++ = 90-100% control at 100 ppm) | +++ (+++ = 90-100% control at 100 ppm) |  |  |  |  |
